# Data published in PMC3729217 (Chembiochem : a European journal of chemical biology, 2010).
# What was measured:
# PKCα-EGFP = PKCα-EGFP (Rattus norvegicus, UniProt P05696); experiment: Plasma membrane translocation of PKCα-EGFP in transfected MCF-7 cells; assay type: cell-based; details: MCF-7 cells expressing PKCα-EGFP, stimulated with 40 μM, 37°C
# PKCδ-ECFP = PKCδ-ECFP (Homo sapiens, UniProt Q05655); experiment: Plasma membrane translocation of PKCδ-ECFP in transfected MCF-7 cells; assay type: cell-based, rat; details: MCF-7 cells expressing PKCδ-ECFP, stimulated with 40 μM, 37°C
# PKCε-EGFP = biological target: T1, PKCε-EGFP (Rattus norvegicus, UniProt P09216); experiment: Plasma membrane translocation of PKCε-EGFP in transfected MCF-7 cells; assay type: cell-based; details: MCF-7 cells expressing PKCε-EGFP, stimulated with 40 μM, 37°C
# T1 sequence (P09216 1-737): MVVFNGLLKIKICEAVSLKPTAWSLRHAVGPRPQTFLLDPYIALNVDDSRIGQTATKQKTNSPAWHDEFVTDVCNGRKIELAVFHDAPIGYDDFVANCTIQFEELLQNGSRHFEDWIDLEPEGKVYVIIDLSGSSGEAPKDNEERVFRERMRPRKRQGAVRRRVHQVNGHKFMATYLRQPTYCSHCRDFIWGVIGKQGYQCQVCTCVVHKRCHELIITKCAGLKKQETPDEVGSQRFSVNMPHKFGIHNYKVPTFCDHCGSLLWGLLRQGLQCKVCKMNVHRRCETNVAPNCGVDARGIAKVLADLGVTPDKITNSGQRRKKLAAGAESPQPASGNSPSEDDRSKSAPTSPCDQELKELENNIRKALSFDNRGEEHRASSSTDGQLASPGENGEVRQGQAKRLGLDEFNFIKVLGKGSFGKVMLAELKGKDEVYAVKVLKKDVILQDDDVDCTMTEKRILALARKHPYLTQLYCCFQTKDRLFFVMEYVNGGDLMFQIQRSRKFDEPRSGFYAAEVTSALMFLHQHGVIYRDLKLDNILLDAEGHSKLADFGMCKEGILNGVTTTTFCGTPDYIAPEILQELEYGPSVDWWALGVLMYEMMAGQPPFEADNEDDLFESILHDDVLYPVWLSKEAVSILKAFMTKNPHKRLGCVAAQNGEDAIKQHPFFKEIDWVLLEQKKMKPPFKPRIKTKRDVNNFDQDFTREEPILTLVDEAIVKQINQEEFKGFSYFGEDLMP
# PKCδ-ECFP, sequence (Q05655 whole entry): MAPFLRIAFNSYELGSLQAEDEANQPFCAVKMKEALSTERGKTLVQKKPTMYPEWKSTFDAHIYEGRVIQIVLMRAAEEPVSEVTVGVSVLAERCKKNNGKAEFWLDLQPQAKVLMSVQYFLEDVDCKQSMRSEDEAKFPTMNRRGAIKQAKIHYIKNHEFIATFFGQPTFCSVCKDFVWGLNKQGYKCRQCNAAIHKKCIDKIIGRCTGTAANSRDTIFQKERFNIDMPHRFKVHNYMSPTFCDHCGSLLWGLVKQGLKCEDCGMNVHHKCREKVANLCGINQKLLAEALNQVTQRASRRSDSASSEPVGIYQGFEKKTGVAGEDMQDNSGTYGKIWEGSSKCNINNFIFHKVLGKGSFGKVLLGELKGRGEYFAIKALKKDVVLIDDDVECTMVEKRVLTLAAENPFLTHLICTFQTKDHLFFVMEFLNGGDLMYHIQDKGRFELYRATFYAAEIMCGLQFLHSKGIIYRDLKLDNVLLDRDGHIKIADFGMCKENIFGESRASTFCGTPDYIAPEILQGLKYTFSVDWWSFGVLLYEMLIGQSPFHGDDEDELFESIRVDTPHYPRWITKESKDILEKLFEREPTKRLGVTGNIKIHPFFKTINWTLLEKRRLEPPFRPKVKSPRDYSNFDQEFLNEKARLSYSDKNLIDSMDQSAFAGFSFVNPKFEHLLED
structure (smiles),measurement,setting,value
"CCCCCCCCCCCCCC(=O)O[C@@H]1[C@@H](C)[C@@]2(O)[C@@H](C=C(CO)C[C@]3(O)C(=O)C(C)=C[C@@H]23)[C@@H]2C(C)(C)[C@]12OC(C)=O [PMA, phorbol 12-myristate 13-acetate]","t1/2, half-time of plasma membrane localization",PKCα-EGFP,547 ± 192 s
same,"t1/2, half-time of plasma membrane localization",PKCδ-ECFP,47 ± 22 s
same,"t1/2, half-time of plasma membrane localization",PKCε-EGFP,31 ± 18 s
